Data: the Deep4Chem optical property database
Each block holds one compound with its values, some of them ahead of it.

Assay: solvent given as SMILES

- absorption maximum (in ClC(Cl)Cl): 352 nm
SMILES: CC(=O)OCCN1C(=O)c2cccc3c(Oc4ccccc4C)ccc(c23)C1=O

- absorption maximum (in CN(C)C=O): 523 nm
SMILES: CCCCCCCCCCCCCCCCCCN1C(=O)c2ccc3c4ccc5c6c(ccc(c7ccc(c2c37)C1=O)c64)C(=O)NC5=O

- absorption maximum (in ClCCl): 576 nm
SMILES: Cc1cc(C)c(C2=C3C=C(/C=C/C(=O)OCc4ccccc4)C=[N+]3[B-](F)(F)n3cc(/C=C/C(=O)OCc4ccccc4)cc32)c(C)c1

- absorption maximum (in ClC(Cl)Cl): 390 nm
SMILES: C(=N\c1ccc(-c2cn3nc(-c4cccs4)sc3n2)cc1)/c1ccc(N(c2ccccc2)c2ccccc2)cc1

- absorption maximum (in ClC(Cl)Cl): 332 nm
SMILES: C[Si](C)(C)c1sc([Si](C)(C)C)c2c1sc1c2sc2sc3sc4c(sc5c([Si](C)(C)C)sc([Si](C)(C)C)c54)c3c21

- absorption maximum (in ClCCl): 654 nm
SMILES: CC(C)[Si](C#Cc1c2cc3ccccc3cc2c(C#Cc2ccc(C(F)(F)F)cc2)c2cc3ccccc3cc12)(C(C)C)C(C)C

- absorption maximum (in C1CCOC1): 355 nm
- absorption maximum (in CO): 355 nm
SMILES: CCOC(=O)C1=CNC=C(C(=O)OCC)C1c1ccccc1

- absorption maximum (in CCOC(C)=O): 383 nm
SMILES: CCn1c2ccccc2c2c(C#N)c3c(ccc4c3cnn4C)nc21

- absorption maximum (in CO): 534 nm
SMILES: CCOC(=O)CCCCCn1c2ccc(Cl)cc2c(=O)c2cc3c(cc21)c(=O)c1cc(Cl)ccc1n3CCCCCC(=O)OCC

- absorption maximum (in CO): 448 nm
SMILES: O=C1C=C(Nc2ccc(F)cc2[N+](=O)[O-])C(=O)c2ccccc21

- absorption maximum (in CC#N): 357 nm
SMILES: N#C/C(=C\c1ccncc1)c1nc(-c2ccc(Cl)cc2)cs1

- absorption maximum (in C1COCCO1): 422 nm
SMILES: O=C1NC(c2ccccc2)=C/C1=C\c1ccccc1

- absorption maximum (in ClCCl): 368 nm
SMILES: Fc1ccc(C#Cc2c(C#Cc3ccc(F)cc3)c(C#Cc3ccc(F)cc3)c(C#Cc3ccc(F)cc3)c(C#Cc3ccc(F)cc3)c2C#Cc2ccc(F)cc2)cc1

- absorption maximum (in ClCCl): 380 nm
SMILES: c1ccc(N(c2ccccc2)c2ccc(-c3ncnc4ccccc34)cc2)cc1

- absorption maximum (in ClC(Cl)Cl): 383 nm
SMILES: CCCCCCc1sc(CCCCCC)c2c3ccsc3c3sccc3c12

- absorption maximum (in C1CCOC1): 304 nm
SMILES: C1=C(c2ccccc2)C(c2ccccc2)C(c2ccccc2)=C1

- absorption maximum (in C1CCCCC1): 386 nm
- absorption maximum (in C1CCOC1): 386 nm
- absorption maximum (in C1COCCO1): 387 nm
- absorption maximum (in CC#N): 386 nm
- absorption maximum (in CCO): 385 nm
- absorption maximum (in CN(C)C=O): 388 nm
- absorption maximum (in CO): 384 nm
- absorption maximum (in COCCOC): 386 nm
- absorption maximum (in CS(C)=O): 390 nm
- absorption maximum (in O): 385 nm
- absorption maximum (in OCC(O)CO): 393 nm
- absorption maximum (in OCCO): 388 nm
SMILES: CN(C)c1c2ccccc2cc2ccccc12

The next lines start with the compound.

SMILES: COc1ccc(C2=C3C=C(/C=C/C(=O)OC(C)(C)C)C=[N+]3[B-](F)(F)n3cccc32)cc1
- absorption maximum (in ClCCl): 536 nm

SMILES: CC(C)(C)c1ccc2c(c1)c1cc(C(C)(C)C)ccc1n2-c1ccccc1-c1nc(-c2ccccc2P(=O)(c2ccccc2)c2ccccc2)nc(-c2ccccc2P(=O)(c2ccccc2)c2ccccc2)n1
- absorption maximum (in C1CCOC1): 343.56 nm
- absorption maximum (in CC#N): 347.54 nm
- absorption maximum (in CC(C)=O): 343.88 nm
- absorption maximum (in CN(C)C=O): 345.95 nm
- absorption maximum (in Cc1ccccc1): 320.35 nm
- absorption maximum (in ClC(Cl)Cl): 342.93 nm
- absorption maximum (in ClCCl): 341.49 nm

SMILES: CCCCCCCCN1c2ccc(C#Cc3ccc(F)cc3)cc2Sc2cc(C=O)ccc21
- absorption maximum (in C1CCOC1): 378 nm
- absorption maximum (in CC#N): 380.01 nm
- absorption maximum (in CCCCCC): 376 nm
- absorption maximum (in CO): 350 nm
- absorption maximum (in CS(C)=O): 388 nm
- absorption maximum (in Cc1ccccc1): 381.99 nm
- absorption maximum (in ClC(Cl)Cl): 391.99 nm

SMILES: Cc1ccc(-c2oc3cccc4c5c(-c6ccc(C)cc6)c(=N)oc6cccc(c2c34)c65)cc1
- absorption maximum (in ClC(Cl)Cl): 400 nm

SMILES: COc1cccc(C2=C3C=C(/C=C/C(=O)OC(C)(C)C)C=[N+]3[B-](F)(F)n3cccc32)c1
- absorption maximum (in ClCCl): 539 nm

SMILES: Cc1oc(-c2ccccc2)nc1C(=O)O
- absorption maximum (in C1CCCCC1): 269 nm
- absorption maximum (in CC#N): 267 nm
- absorption maximum (in CCO): 273 nm
- absorption maximum (in CCOC(C)=O): 267 nm
- absorption maximum (in O): 273 nm

SMILES: O=[N+]([O-])c1cccs1
- absorption maximum (in CO): 308 nm
- absorption maximum (in O): 318 nm

SMILES: CC1=[N+]2C(=C(c3ccccc3C)c3ccc(C)n3[B-]2(F)F)C=C1c1cc2n(c1)[B-](F)(F)[N+]1=CC=CC1=C2c1c(C)cc(C)cc1C
- absorption maximum (in C1CCCCC1): 595 nm
- absorption maximum (in CCOC(C)=O): 599 nm

SMILES: O=c1cc(C(F)(F)F)c2cc3c4c(c2o1)CCCN4CCC3
- absorption maximum (in C1CCCCC1): 393 nm
- absorption maximum (in CC#N): 418 nm
- absorption maximum (in CCO): 421 nm
- absorption maximum (in CCOC(C)=O): 409 nm
- absorption maximum (in OCC(O)CO): 434 nm

SMILES: F[B-]1(F)n2c(c(-c3ccccc3)c(-c3ccccc3)c2-c2ccccc2)C(c2ccccc2)=C2C(c3ccccc3)=C(c3ccccc3)C(c3ccccc3)=[N+]21
- absorption maximum (in C1CCOC1): 573 nm

SMILES: CCCN1c2ccccc2Sc2cc(/C=C\c3cc(=O)oc4ccc(C)cc34)ccc21
- absorption maximum (in ClC(Cl)Cl): 423 nm

SMILES: CC1=[N+]2C(=C(c3ccccc3)c3c4ccccc4c(C)n3[B-]2(F)F)c2ccccc21
- absorption maximum (in CC#N): 597 nm

SMILES: O=S(=O)(c1ccc(N2c3ccccc3[Si](c3ccccc3)(c3ccccc3)c3ccccc32)cc1)c1ccc(N2c3ccccc3[Si](c3ccccc3)(c3ccccc3)c3ccccc32)cc1
- absorption maximum (in Cc1ccccc1): 328 nm

SMILES: C/C=C/c1cccc(OC)c1
- absorption maximum (in CCCCCC): 293 nm

SMILES: C#CCOc1ccc(/C=C/C2=[N+]3C(=C(c4ccc(N(CC)CC)cc4)c4c(C)cc(/C=C/c5ccc(OCC(=O)OC)cc5)n4[B-]3(F)F)C(C)=C2)cc1
- absorption maximum (in CO): 640 nm

SMILES: CC1(C)c2ccccc2N(c2ccc(C(=O)/C=C(\O)c3ccc(N4c5ccccc5C(C)(C)c5ccccc54)cc3)cc2)c2ccccc21
- absorption maximum (in Cc1ccccc1): 406 nm

SMILES: Clc1cnc2nn3ccccc3c2c1
- absorption maximum (in C1CCOC1): 373 nm

SMILES: CCCCCCCCCCCCC1(CCCCCCCCCCCC)c2cc(-c3ccc(C=C4C(=O)c5ccccc5C4=O)cc3)ccc2-c2ccc(-c3ccc(C=C4C(=O)c5ccccc5C4=O)cc3)cc21
- absorption maximum (in C1CCOC1): 433 nm
- absorption maximum (in CC(C)=O): 429 nm
- absorption maximum (in CCCCCC): 419 nm
- absorption maximum (in CS(C)=O): 437 nm
- absorption maximum (in Cc1ccccc1): 429 nm
- absorption maximum (in ClC(Cl)Cl): 438 nm

SMILES: CN(C)c1ccc(-c2ccc(-c3cc(N4CCCCC4)c(C#N)c4c3-c3ccccc3CC4)cc2)cc1
- absorption maximum (in C1CCCCC1): 353 nm
- absorption maximum (in C1CCOC1): 342 nm
- absorption maximum (in CN(C)C=O): 350 nm
- absorption maximum (in CS(C)=O): 342 nm
- absorption maximum (in Cc1ccccc1): 360 nm
- absorption maximum (in ClC(Cl)Cl): 348 nm

SMILES: CCCCCCCCCCCCOc1cc2c3c(ccc4c5c(NC6CCCCC6)cc6c7c(ccc(c1c34)c75)C(=O)N(C1CCCCC1)C6=O)C(=O)N(C1CCCCC1)C2=O
- absorption maximum (in ClC(Cl)Cl): 640 nm

SMILES: CC(C)[Si](C#Cc1c2nsnc2c(C#C[Si](C(C)C)(C(C)C)C(C)C)c2nc3c(nc12)Cc1ccccc1-3)(C(C)C)C(C)C
- absorption maximum (in CCCCCC): 540 nm

SMILES: O=C1O/C(=C\c2ccccc2)c2ccccc21
- absorption maximum (in CC#N): 335 nm

SMILES: CCCCc1ccc2c(c1)c1ccc3cccc4c3c1c1c2c2cccc3ccc5c6cc(CCCC)ccc6c4c1c5c32
- absorption maximum (in ClCCl): 492 nm

SMILES: F[B-]1(F)N2C=CN=CC2=[N+]2[N+]1=Cc1c(-c3ccccc3)cc(-c3ccccc3)n1[B-]2(F)F
- absorption maximum (in ClCCl): 528 nm

SMILES: CCN(CC)c1ccc2c(-c3ccccc3C(=O)O)c3c([o+]c2c1)/C(=C/c1ccc(N(C)C)s1)CCC3
- absorption maximum (in ClCCl): 733 nm

SMILES: COc1ccc(-c2c3cc4ccccc4cc3c(C#Cc3ccccc3)c3cc4cc(C)sc4cc23)cc1
- absorption maximum (in ClCCl): 580 nm

SMILES: CC1=C(c2ccc(N(C)C)cc2)C(C)=[N+]2C1=C(c1c(-c3ccccn3)nc3ccccn13)c1c(C)c(-c3ccc(N(C)C)cc3)c(C)n1[B-]2(F)F
- absorption maximum (in ClCCl): 574 nm

SMILES: c1ccc(-c2nc(-c3ccccc3)nc(-c3ccc(N4c5ccccc5C5(c6ccccc64)c4ccccc4C4(c6ccccc6Sc6ccccc64)c4ccccc45)cc3)n2)cc1
- absorption maximum (in Cc1ccccc1): 394.63 nm

SMILES: Cn1c2ccccc2[c+](-c2ccccc2)c2cc([N+](=O)[O-])ccc21
- absorption maximum (in CC#N): 428.3 nm
- absorption maximum (in CCO): 426.3 nm
- absorption maximum (in CO): 432.1 nm
- absorption maximum (in CS(C)=O): 434.3 nm

SMILES: c1ccc(-c2cc(-c3ccc(-c4nc(-c5ccccn5)c(-c5ccccn5)[nH]4)cc3)cc(-c3ccccn3)n2)nc1
- absorption maximum (in C1CCOC1): 371 nm
- absorption maximum (in CC#N): 380 nm
- absorption maximum (in CC(C)=O): 381 nm
- absorption maximum (in CCO): 326 nm
- absorption maximum (in CCOC(C)=O): 360 nm
- absorption maximum (in CN(C)C=O): 337 nm
- absorption maximum (in CO): 321 nm
- absorption maximum (in CS(C)=O): 338 nm
- absorption maximum (in ClC(Cl)Cl): 408 nm
- absorption maximum (in ClCCl): 388 nm

SMILES: CN(C)c1ccc(/C=C/c2ccc(-c3nnc(-c4ccc(-c5cc6ccccc6s5)cc4)o3)cc2)cc1
- absorption maximum (in CC#N): 334 nm
- absorption maximum (in CC(C)=O): 337 nm
- absorption maximum (in CCCCCCCC): 334 nm
- absorption maximum (in CCCCCCCCCCO): 344 nm
- absorption maximum (in CCCCCCCCO): 343 nm
- absorption maximum (in CCCCCO): 341 nm
- absorption maximum (in CCCO): 341 nm
- absorption maximum (in CN(C)C=O): 338 nm
- absorption maximum (in CO): 335 nm
- absorption maximum (in CS(C)=O): 340 nm

SMILES: CC(=O)Nc1ccc2c(c1)c(=O)c1ccccc1n2CCCCCC(=O)O
- absorption maximum (in O): 398 nm

SMILES: CCc1ccc(-n2c3ccccc3c3cc4c(cc32)c2ccccc2n4-c2ccc(CC)s2)s1
- absorption maximum (in ClC(Cl)Cl): 398 nm

SMILES: C[C@]12SC(=O)C=C1c1nc(-c3ccc(O)cc3)[nH]c1C1=CC(=O)S[C@@]12C
- absorption maximum (in CC#N): 470 nm

SMILES: F[B-]1(F)n2cccc2C(c2ccccc2)=C2C=CC(N3CCOCC3)=[N+]21
- absorption maximum (in CC#N): 473 nm
- absorption maximum (in CCCCCC): 514 nm
- absorption maximum (in CCOC(C)=O): 480 nm
- absorption maximum (in CO): 479 nm
- absorption maximum (in ClCCl): 486 nm

SMILES: CCOC(=O)C1=C(N)n2c(=O)c3ccccc3c(=O)n2C1c1ccc([N+](=O)[O-])cc1 (stereo not given)
- absorption maximum (in CS(C)=O): 358 nm

SMILES: CC1(C)c2ccccc2N(c2ccc(-c3nc(-c4ccccc4)cc(-c4ccccc4)n3)cc2)c2ccccc21
- absorption maximum (in Cc1ccccc1): 366.6 nm

SMILES: CCCCCCc1cc2/c(=C(\C#N)C(=O)OC)s/c(=c3/s/c(=C(/C#N)C(=O)OC)c4cc(CCCCCC)sc34)c2s1
- absorption maximum (in Cc1ccccc1): 580 nm

SMILES: CC(C)(C)c1ccc2c(c1)c1cc(C(C)(C)C)ccc1n2-c1ccc(S(=O)(=O)c2ccc(S(=O)(=O)c3ccc(-n4c5ccc(C(C)(C)C)cc5c5cc(C(C)(C)C)ccc54)cc3)cc2)cc1
- absorption maximum (in Cc1ccccc1): 363 nm
